The kinase profiling compilation of Christmann-Franck et al. (2016)

Tests used:
Assay in all cases: KINOMEscan competition binding
Settings in all cases: compound 10.0 µM
[1] = biological target: ACVR1B (human) (UniProt P36896)
[2] = biological target: BMPR2 (human) (UniProt Q13873)
[3] = tested on: BMX (human), P51813 [V600E]
[4] = biological target: BRSK1 (human) (UniProt Q8TDC3)
[5] = biological target: CAMKK1 (human) (UniProt Q8N5S9)
[6] = biological target: CAMKK2 (human) (UniProt Q96RR4)
[7] = tested on: CPK1 (P.falciparum)
[8] = biological target: DAPK3 (human) (UniProt O43293)
[9] = biological target: DDR2 (human) (UniProt Q16832)
DDR2 (human), sequence (Q16832 whole entry, looked up): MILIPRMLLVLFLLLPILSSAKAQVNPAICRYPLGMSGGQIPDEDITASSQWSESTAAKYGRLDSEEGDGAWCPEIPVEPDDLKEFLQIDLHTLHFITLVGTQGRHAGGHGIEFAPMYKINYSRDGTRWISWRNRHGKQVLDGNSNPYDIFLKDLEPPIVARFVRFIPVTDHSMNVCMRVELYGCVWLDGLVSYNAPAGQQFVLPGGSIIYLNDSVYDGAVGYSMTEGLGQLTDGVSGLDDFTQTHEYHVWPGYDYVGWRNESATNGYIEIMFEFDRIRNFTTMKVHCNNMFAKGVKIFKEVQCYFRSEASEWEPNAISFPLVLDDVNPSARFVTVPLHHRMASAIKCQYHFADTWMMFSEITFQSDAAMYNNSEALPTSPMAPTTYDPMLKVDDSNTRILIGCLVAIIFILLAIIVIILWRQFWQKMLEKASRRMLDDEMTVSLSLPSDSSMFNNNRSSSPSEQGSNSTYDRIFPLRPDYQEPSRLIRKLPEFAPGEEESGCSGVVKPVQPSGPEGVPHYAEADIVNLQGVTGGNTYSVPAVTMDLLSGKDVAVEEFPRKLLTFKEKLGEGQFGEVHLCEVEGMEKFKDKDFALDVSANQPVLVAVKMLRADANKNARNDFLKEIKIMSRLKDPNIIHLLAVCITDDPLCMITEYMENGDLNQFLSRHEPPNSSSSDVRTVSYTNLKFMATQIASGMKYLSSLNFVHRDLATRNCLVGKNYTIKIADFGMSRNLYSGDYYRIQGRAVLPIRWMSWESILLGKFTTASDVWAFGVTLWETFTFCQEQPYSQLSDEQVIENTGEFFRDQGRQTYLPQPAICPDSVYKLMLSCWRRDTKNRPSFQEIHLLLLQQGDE

[10] = biological target: EPHA7 (human) (UniProt Q15375)
[11] = tested on: FGFR3 (human), P22607 [G697C]
[12] = biological target: FGFR4 (human) (UniProt P22455)
[13] = biological target: FLT1 (human) (UniProt P17948)
FLT1 (human), sequence (P17948 whole entry, looked up): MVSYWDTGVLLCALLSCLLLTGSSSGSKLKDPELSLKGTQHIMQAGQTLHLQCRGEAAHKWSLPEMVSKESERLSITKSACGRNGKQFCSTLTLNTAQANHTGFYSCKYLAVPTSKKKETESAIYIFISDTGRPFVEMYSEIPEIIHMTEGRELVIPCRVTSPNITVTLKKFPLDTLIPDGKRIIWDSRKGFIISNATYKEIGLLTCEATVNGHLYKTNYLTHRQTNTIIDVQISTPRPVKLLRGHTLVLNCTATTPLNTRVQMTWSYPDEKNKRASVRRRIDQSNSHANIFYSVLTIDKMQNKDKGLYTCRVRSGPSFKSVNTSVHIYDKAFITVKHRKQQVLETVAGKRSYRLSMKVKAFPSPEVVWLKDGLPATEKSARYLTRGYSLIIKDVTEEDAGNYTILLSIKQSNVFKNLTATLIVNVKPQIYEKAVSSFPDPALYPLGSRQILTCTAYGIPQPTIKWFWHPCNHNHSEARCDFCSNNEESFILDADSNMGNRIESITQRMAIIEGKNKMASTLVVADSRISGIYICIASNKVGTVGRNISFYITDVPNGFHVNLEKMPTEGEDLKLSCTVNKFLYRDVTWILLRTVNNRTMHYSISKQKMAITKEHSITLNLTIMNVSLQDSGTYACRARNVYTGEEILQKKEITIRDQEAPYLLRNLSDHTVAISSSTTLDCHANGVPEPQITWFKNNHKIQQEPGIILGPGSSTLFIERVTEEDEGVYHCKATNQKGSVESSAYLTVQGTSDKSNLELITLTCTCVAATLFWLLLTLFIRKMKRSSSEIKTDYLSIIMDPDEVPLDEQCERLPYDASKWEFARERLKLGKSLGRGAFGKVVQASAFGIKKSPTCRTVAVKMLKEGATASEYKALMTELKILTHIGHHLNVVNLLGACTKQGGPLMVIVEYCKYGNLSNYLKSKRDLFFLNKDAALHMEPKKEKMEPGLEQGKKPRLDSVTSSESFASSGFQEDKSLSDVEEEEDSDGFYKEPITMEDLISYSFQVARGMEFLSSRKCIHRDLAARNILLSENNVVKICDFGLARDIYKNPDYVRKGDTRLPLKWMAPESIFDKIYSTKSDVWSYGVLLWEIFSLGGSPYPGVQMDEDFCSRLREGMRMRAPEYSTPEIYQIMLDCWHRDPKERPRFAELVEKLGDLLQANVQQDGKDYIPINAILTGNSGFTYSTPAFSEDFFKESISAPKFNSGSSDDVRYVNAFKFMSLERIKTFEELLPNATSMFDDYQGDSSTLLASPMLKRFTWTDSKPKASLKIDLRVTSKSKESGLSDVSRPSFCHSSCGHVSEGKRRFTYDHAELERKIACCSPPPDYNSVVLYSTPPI

[14] = biological target: GRK4 (human) (UniProt P32298)
[15] = biological target: IRAK3 (human) (UniProt Q9Y616)
[16] = biological target: MAP2K4 (human) (UniProt P45985)
[17] = biological target: MAP2K7 (human) (UniProt O14733)
[18] = biological target: MAP3K10 (human) (UniProt Q02779)
[19] = biological target: MAPK12 (human) (UniProt P53778)
MAPK12 (human), sequence (P53778 whole entry, looked up): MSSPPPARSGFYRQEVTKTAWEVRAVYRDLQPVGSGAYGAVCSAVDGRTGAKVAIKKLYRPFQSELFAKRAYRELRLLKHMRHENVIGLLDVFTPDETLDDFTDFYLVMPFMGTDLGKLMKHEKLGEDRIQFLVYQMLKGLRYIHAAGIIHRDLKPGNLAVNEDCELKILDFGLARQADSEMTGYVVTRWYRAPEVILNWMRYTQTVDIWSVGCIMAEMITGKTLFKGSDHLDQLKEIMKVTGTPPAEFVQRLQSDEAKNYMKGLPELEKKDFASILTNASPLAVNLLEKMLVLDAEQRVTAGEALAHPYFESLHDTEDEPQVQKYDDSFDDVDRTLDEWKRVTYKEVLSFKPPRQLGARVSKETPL

[20] = biological target: MAPK7 (human) (UniProt Q13164)
[21] = biological target: MARK1 (human) (UniProt Q9P0L2)
MARK1 (human), sequence (Q9P0L2 whole entry, looked up): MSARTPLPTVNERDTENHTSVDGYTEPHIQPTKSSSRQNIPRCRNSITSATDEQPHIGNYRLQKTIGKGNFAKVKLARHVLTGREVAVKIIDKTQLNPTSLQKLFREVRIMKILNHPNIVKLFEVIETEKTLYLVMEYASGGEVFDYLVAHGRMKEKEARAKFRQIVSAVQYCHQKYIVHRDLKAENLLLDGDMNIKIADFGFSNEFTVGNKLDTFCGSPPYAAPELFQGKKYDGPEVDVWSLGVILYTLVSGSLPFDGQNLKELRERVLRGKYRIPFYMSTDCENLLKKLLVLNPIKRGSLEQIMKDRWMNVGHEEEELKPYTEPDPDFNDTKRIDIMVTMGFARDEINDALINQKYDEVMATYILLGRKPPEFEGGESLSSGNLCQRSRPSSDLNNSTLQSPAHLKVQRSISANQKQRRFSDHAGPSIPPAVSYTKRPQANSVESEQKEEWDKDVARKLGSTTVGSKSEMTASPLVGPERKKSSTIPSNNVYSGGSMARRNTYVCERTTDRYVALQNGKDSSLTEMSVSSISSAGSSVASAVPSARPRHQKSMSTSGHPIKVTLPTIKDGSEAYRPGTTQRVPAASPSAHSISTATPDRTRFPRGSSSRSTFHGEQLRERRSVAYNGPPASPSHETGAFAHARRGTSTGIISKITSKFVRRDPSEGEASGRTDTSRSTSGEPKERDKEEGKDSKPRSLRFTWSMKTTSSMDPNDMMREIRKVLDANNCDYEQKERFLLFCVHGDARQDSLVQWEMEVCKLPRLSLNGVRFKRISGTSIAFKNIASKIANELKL

[22] = biological target: MLTK (human) (UniProt Q9NYL2)
[23] = biological target: NEK9 (human) (UniProt Q8TD19)
[24] = biological target: OXSR1 (human) (UniProt O95747)
[25] = biological target: PAK6 (human) (UniProt Q9NQU5)
PAK6 (human), sequence (Q9NQU5 whole entry, looked up): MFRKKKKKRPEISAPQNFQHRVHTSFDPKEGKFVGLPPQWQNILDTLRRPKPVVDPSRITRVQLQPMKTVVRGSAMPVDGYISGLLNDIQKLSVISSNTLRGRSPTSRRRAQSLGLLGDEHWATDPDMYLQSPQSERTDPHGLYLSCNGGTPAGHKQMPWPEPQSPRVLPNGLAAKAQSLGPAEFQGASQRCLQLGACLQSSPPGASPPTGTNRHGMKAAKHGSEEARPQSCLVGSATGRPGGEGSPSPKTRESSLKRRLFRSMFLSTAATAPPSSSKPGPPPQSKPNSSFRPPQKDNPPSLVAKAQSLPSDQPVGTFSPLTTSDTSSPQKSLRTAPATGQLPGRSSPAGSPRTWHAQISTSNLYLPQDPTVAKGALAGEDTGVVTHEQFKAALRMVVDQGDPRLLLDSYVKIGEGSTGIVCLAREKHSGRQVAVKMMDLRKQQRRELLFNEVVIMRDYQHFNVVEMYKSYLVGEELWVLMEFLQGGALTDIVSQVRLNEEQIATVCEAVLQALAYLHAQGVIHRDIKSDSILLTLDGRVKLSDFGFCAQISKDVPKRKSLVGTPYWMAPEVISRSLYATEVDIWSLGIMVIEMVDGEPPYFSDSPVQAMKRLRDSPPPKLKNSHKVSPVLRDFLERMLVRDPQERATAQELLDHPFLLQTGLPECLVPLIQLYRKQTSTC

[26] = biological target: PHKG2 (human) (UniProt P15735)
[27] = biological target: PIK3C2B (human) (UniProt O00750)
[28] = tested on: PIK3CA (human), P42336 [E542K]
[29] = biological target: PIK3CD (human) (UniProt O00329)
PIK3CD (human), sequence (O00329 whole entry, looked up): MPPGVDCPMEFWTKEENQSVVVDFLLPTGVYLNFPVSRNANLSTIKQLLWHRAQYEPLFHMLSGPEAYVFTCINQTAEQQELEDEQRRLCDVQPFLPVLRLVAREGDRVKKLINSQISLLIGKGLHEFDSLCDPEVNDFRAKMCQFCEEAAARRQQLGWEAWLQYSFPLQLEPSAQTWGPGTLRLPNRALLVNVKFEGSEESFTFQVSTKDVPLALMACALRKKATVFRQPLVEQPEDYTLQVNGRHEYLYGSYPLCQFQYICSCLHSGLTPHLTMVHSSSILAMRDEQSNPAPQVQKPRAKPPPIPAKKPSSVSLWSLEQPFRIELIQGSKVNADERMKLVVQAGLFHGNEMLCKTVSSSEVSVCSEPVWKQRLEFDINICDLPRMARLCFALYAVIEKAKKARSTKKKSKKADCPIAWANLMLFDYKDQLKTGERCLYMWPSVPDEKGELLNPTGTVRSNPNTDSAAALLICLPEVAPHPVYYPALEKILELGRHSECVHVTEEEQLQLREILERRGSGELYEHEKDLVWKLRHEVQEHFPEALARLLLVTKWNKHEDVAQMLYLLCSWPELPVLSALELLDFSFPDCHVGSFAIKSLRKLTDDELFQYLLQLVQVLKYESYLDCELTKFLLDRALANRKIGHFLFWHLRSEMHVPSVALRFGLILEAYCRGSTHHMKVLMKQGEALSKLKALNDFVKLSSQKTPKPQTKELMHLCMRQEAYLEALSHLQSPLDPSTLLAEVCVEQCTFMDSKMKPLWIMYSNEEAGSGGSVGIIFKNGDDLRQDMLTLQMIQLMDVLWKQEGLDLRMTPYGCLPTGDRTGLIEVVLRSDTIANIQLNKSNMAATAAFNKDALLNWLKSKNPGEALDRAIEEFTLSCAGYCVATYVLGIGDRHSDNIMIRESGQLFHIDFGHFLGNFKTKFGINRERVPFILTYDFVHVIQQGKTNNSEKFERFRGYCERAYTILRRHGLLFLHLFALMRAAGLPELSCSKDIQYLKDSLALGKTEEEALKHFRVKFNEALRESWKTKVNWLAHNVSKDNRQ

[30] = biological target: PIP4K2C (human) (UniProt Q8TBX8)
[31] = biological target: PLK2 (human) (UniProt Q9NYY3)
[32] = biological target: PLK3 (human) (UniProt Q9H4B4)
[33] = biological target: RIOK2 (human) (UniProt Q9BVS4)
[34] = biological target: RIPK2 (human) (UniProt O43353)
[35] = biological target: RPS6KA4 KD1 (human) (UniProt O75676)
[36] = biological target: SIK1 (human) (UniProt P57059)
[37] = biological target: STK3 (human) (UniProt Q13188)
[38] = biological target: TIE1 (human) (UniProt P35590)
[39] = biological target: TNK2 (human) (UniProt Q07912)
[40] = biological target: YSK4 (human) (UniProt Q56UN5)

C=CC(=O)Nc1ccc(C(=O)c2sc(Nc3ccc(N4CCN(C)CC4)cc3OC)nc2N)cc1
kinase still bound, per cent of control [1]: 100% | kinase still bound, per cent of control [2]: 100% | kinase still bound, per cent of control [3]: 92% | kinase still bound, per cent of control [4]: 98% | kinase still bound, per cent of control [5]: 3.3% | kinase still bound, per cent of control [6]: 5% | kinase still bound, per cent of control [7]: 74% | kinase still bound, per cent of control [8]: 2.6% | kinase still bound, per cent of control [9]: 100% | kinase still bound, per cent of control [10]: 95% | kinase still bound, per cent of control [11]: 77% | kinase still bound, per cent of control [12]: 26% | kinase still bound, per cent of control [13]: 97% | kinase still bound, per cent of control [14]: 52% | kinase still bound, per cent of control [15]: 96% | kinase still bound, per cent of control [16]: 24% | kinase still bound, per cent of control [17]: 93% | kinase still bound, per cent of control [18]: 91% | kinase still bound, per cent of control [19]: 100% | kinase still bound, per cent of control [20]: 9.8% | kinase still bound, per cent of control [21]: 93% | kinase still bound, per cent of control [22]: 100% | kinase still bound, per cent of control [23]: 100% | kinase still bound, per cent of control [24]: 10% | kinase still bound, per cent of control [25]: 40% | kinase still bound, per cent of control [26]: 3% | kinase still bound, per cent of control [27]: 100% | kinase still bound, per cent of control [28]: 100% | kinase still bound, per cent of control [29]: 100% | kinase still bound, per cent of control [30]: 20% | kinase still bound, per cent of control [31]: 81% | kinase still bound, per cent of control [32]: 7.8% | kinase still bound, per cent of control [33]: 53% | kinase still bound, per cent of control [34]: 100% | kinase still bound, per cent of control [35]: 95% | kinase still bound, per cent of control [36]: 83% | kinase still bound, per cent of control [37]: 98% | kinase still bound, per cent of control [38]: 67% | kinase still bound, per cent of control [39]: 82% | kinase still bound, per cent of control [40]: 70%
